One assay concerns p53 levels. The settings on record: epoxomicin treatment; cited from earlier work.
In assay [1] the target is human 20S proteasome (hu20S) (Homo sapiens, UniProt P28074). In words: Human 20S chymotryptic activity, Suc-LLVY-AMC cleavage. Format: biochemical. The settings on record: for Human 20S Chymotryptic Activity kinact./Ki: 10 μM Suc-LLVY-AMC, 1 nM hu20S, 20 mM Tris pH 8.0, 0.5 mM EDTA, 0.03% SDS, 5% DMSO; for IC50 / kinact/KI: Suc-LLVY-AMC substrate; for IC50: read-out: Human 20S Chymotryptic Activity Vf IC50; for kinact/KI: read-out: Human 20S Chymotryptic Activity kobs/[I]. Here is the method:
Proteasome activity was measured via LLVY-AMC cleavage. Fluorescence was measured using the excitation wavelength of 340 nm and an emission wavelength of 465 nm. The assay was carried out in 20 mM Tris, pH 8.0, 0.5 mM EDTA, 0.03% SDS buffer with 5% DMSO.
(§1) The ability of Inhibitor 1 to inhibit the proteolytic activity of the human 20S proteasome (hu20S) both in vitro and in cells was tested using the fluorescent substrate for the chymotryptic-like activity of the proteasome, Suc-LLVY-AMC as shown in FIG. 1 and Table 1. Fluorescence was measured using the excitation wavelength of 340 nm and an emission wavelength of 465 nm. […] The assay was carried out in 20 mM Tris, pH 8.0, 0.5 mM EDTA, 0.03% SDS buffer with 5% DMSO.

The subject of assay [2] is chymotryptic-like activity of the proteasome in 8226 cells. In words: Cell chymotryptic activity in 8226 cells. As to conditions: 1 hr. The class given is cell-based, human. The method, then: as §1
The next assay deals with 8226 cells. As to the kind of experiment: Cell viability, 8226. The class given is cell-based. As to conditions: 24 hr.
The target of assay [3] is purified human 20S proteasome (Homo sapiens, UniProt P28074). In words: Binding to the proteasome via fluorescence polarization. The settings on record: 2 nM inhibitor. Here is the method: Fluorescence was measured using the excitation wavelength of 485 nm and an emission wavelength of 535 nm.
2 nM of Inhibitor 1 was incubated with a serial dilution of purified human 20S proteasome (from 400 pM to 40 nM) in a 20 mM Tris, pH 8.0, 0.5 mM EDTA, 0.03% SDS buffer and was allowed to bind to the proteasome during an incubation at room temperature as shown in FIG. 2. Fluorescence polarization was measured by exciting the samples at 485 nm and detecting the emitted fluorescence at 535 nm in a microwell plate in a fluorimeter capable of measuring fluorescence polarization (Tecan GENios Pro). […] When the concentration of human 20S was low (free Inhibitor 1), the mP was about 40 millipolarization units (mP). The fluorescence polarization at high concentrations of human 20S (bound Inhibitor 1) was about 110 mP.
In general terms: Polarisation of emitted light reports the rotation of a fluorescent probe.

For assay [4], the target named is β5 subunit of human 20S or whole blood lysate (Homo sapiens, UniProt P28074). In words: Streptavidin gel shift assay compared with chymotryptic substrate cleavage assay. As to conditions: probe Inhibitor 3. Format: biochemical.
Method: Human 20S (50 nM) or whole blood lysate (100 mg/mL) was pretreated with either DMSO or Inhibitor 4 (200 nM) for 1 h. Inhibitor 3 (1 μM) was then added. After 1 h, unbound Inhibitor 3 was removed using a spin desalting column and the resulting solution was diluted (1:10) in 1% SDS and heated at 90° C. to denature the proteins. The solution was cooled to room temperature and streptavidin (±1 μg/15 μL) was added. The inhibitor/streptavidin solution was then added to NuPAGE sample buffer at room temperature (not boiled). The sample was then loaded on NuPAGE gel and run at 150 V in a refrigerator at approximately 4° C.
Assay [5] deals with T1, chymotryptic-like activity of the proteasome in HT29 cells (Homo sapiens, UniProt P28074).
T1 construct: endogenous in cells; host or cells: HT29 cells
In words: Cell chymotryptic activity in HT29 cells. The settings on record: 4 hr. Format: cell-based. The method, then: as §1

The next assay has as its system HT29 cells. In words: Cell viability, HT29. Format: cell-based. As to conditions: Homo sapiens, HT-29, 72 hr.

Take `CC[C@H](C)[C@H](NC(=O)[C@H]([C@@H](C)CC)N(C)C(C)=O)C(=O)N[C@H](C(=O)N[C@@H](CC(C)C)C(=O)[C@@]1(C)CO1)[C@@H](C)O` [epoxomicin]: in the assay with p53 levels, the p53 levels stabilized entry is recorded as “over 50 fold”.
The IC50 is the midpoint of a concentration-inhibition curve. As for `CC(C)C[C@H](NC(=O)[C@H](CCc1ccccc1)NC(=O)c1ccc(C2=C3C=CC(O)C=C3Oc3cc(O)ccc32)c(C(=O)O)c1)C(=O)N[C@@H](Cc1ccccc1)C(=O)N[C@@H](CC(C)C)C(=O)[C@@]1(C)CO1` (single isomer, unassigned) [Inhibitor 1], in assay [1], the “Human 20S Chymotryptic Activity kinact./Ki” value is on record as 27,000 M^-1sec^-1, the IC50 amounted to 9.4 nM and the kinact/KI stood at 23000 M⁻¹ s⁻¹. Moreover, the half-maximal inhibitory concentration (IC50) in assay [2] stood at 340 nM. Also, the IC50 with 8226 cells turned out to be 191 nM. Further, in assay [3] (high concentrations of human 20S), the “Fluorescence polarization, bound Inhibitor 1” value is on record as “about 110 mP”. Also, the “Fluorescence polarization, free Inhibitor 1” value in assay [3] (low concentration of human 20S) was “about 40 mP”.
Take `CC(C)C[C@H](NC(=O)[C@H](CCc1ccccc1)NC(=O)CN1CCOCC1)C(=O)N[C@@H](Cc1ccccc1)C(=O)N[C@@H](CC(C)C)C(=O)[C@@]1(C)CO1` [Inhibitor 4]: the “Dose response: gel shift assay versus chymotryptic substrate cleavage assay” value in assay [4] is “comparable IC50 values”.
Regarding `CC(=O)N[C@@H](CCc1ccccc1)C(=O)N[C@@H](CC(C)C)C(=O)N[C@@H](Cc1ccccc1)C(=O)N[C@@H](CC(C)C)C(=O)[C@@]1(C)CO1` [YU101], the “Human 20S Chymotryptic Activity kinact./Ki” value in assay [1] is on record as 105,000 M^-1sec^-1. For the same molecule, the IC50 in assay [1] was 2 nM; in assay [2], 7.3 nM; in assay [5], 3.3 nM; in the assay with 8226 cells, 5 nM; with HT29 cells, 6.8 nM. Further, the kinact/KI in assay [1] is 93500 M⁻¹ s⁻¹.

Source of the values: patent US20060088471A1, “Compounds for enzyme inhibition” (Proteolix, Inc., priority 2004, published 2006).
